Laboratory results: patent publication US10752615B2, “Spirocyclic containing compounds and pharmaceutical uses thereof” (GB005, Inc., priority 2016, dated 2020)

How the values were obtained:
BTK = BTK (Homo sapiens (Human), UniProt Q06187); assay: Kinase inhibition assay (Nanosyn, microfluidic detection), BTK; assay type: biochemical; settings: 1 mM ATP, 3 hours at 25° C.
Experimental: (§1) The in vitro kinase assays were performed at Nanosyn (Santa Clara, Calif.) utilizing microfluidic detection technology. The test compounds were serially pre-diluted in DMSO and added, by the acoustic dispensing (Labcyte® 550), directly to 384 well assay plates into 10 uL of a buffer with enzyme (ITK, TXK, BTK or TEC) comprising: 100 mM HEPES, pH7.5, 5 mM MgCl2, 0.1% bovine serum albumin, 1 mM DTT, 0.01% Triton X-100 and the enzyme. Final DMSO concentration was maintained at 1% in all samples, including the controls. The reactions were initiated by addition of ATP (1 mM final concentration) and the fluorescently labeled peptide substrate to a final concentration of 1 uM, and incubated for 3 hours at 25° C. Following incubation, the reactions were quenched by addition of 40 μL of termination buffer (100 mM HEPES, pH7.5, 0.01% Triton X-100, 50 mM EDTA). Terminated plates were analyzed using Caliper LabChip® 3000 microfluidic electrophoresis instrument (Caliper Life Sciences/Perkin Elmer). The enzymatic modification of the peptide substrate (phosphorylation) results in a change of net charge enabling electrophoretic separation of product from substrate. As substrate and product are separated by electrophoresis, two peaks of fluorescence are observed. Change in the relative fluorescence intensity of the substrate and product peaks was the parameter measured, reflecting enzyme activity. In the presence of inhibitor, the ratio between product and substrate is altered: signal of the product decreases, while the signal of the substrate increases. Activity in each test sample was determined as the product to sum ratio (PSR): P/(S+P), where P is the peak height of the product and S is the peak height of the […]. For each compound, enzyme activity was measured at 12 concentrations spaced by 3× dilution intervals. Negative control samples (0%-inhibition in the absence of inhibitor, DMSO only) and positive control samples (100%-inhibition, in the absence of enzyme or in the presence of control inhibitor) were assembled in replicates of four and were used to calculate %-inhibition values in the presence of compounds. Percent inhibition (Pinh) was determined using the following equation: Pinh=(PSR0%−PSRinh)/(PSR0%−PSR100%)*100, where PSRinh is the product sum ratio in the presence of inhibitor, PSR0% is the product sum ratio in the absence of inhibitor and PSR100% is the product sum ratio in 100%-inhibition control samples. To determine IC50 values, the inhibition curves (Pinh versus inhibitor concentration) were fitted by 4 parameter sigmoid dose-response model using XLfit software (IDBS).

TXK = TXK (Homo sapiens (Human), UniProt P42681); assay: Kinase inhibition assay (Nanosyn, microfluidic detection), TXK; assay type: biochemical; settings: 1 mM ATP, 3 hours at 25° C.
Experimental: as §1, with “The enzymatic modification of the peptide substrate (phosphorylation) results in a change of net charge enabling electrophoretic separation of product from substrate.” left out

Sequence of BTK (Q06187 whole entry): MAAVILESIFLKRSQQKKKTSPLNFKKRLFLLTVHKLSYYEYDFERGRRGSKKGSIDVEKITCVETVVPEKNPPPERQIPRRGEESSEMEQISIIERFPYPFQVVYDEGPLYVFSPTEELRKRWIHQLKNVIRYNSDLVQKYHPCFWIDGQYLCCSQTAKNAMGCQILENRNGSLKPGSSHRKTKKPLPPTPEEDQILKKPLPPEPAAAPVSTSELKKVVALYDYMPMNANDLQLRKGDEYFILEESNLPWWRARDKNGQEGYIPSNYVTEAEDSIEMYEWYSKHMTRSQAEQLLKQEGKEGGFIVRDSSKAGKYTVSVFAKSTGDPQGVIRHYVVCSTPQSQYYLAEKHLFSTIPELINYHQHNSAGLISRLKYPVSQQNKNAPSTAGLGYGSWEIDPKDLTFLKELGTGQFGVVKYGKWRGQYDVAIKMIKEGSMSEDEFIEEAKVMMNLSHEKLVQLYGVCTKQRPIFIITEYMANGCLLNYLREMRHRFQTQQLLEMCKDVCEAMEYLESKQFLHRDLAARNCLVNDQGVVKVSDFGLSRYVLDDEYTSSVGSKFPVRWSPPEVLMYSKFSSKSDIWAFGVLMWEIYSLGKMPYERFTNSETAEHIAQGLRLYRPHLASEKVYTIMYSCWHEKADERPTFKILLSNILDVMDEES
Sequence of TXK (P42681 whole entry): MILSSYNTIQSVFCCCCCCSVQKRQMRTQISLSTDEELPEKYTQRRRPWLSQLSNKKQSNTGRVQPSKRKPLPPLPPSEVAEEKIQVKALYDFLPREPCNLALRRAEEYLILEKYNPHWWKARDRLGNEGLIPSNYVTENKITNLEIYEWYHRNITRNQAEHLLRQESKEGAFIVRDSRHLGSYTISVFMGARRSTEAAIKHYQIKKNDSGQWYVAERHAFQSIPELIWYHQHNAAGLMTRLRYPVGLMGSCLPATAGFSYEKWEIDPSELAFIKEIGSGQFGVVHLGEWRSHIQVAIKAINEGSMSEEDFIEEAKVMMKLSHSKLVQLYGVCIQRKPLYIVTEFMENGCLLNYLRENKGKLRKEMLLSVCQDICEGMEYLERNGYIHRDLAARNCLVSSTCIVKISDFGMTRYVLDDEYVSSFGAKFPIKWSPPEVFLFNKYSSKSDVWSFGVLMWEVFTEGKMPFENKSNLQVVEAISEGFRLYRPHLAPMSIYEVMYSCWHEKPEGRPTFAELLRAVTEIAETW

IC50 (BTK) | IC50 (TXK) | SMILES
378 nM | 52.6 nM | C=CC(=O)N1CC2(CC(n3c(NC(=O)c4ccc(C(F)F)s4)nc4cc(CN[C@@H](C)C(C)(C)C)ccc43)C2)C1 [Compound 1]
1.01 nM |  | C=CC(=O)N1CC[C@]2(C1)C[C@H](n1c(NC(=O)c3ccc(C(F)F)s3)nc3cc(CN[C@@H](C)C(C)(C)C)ccc31)C2 [Compound 2]
26.8 nM |  | C=CC(=O)N1CC[C@]2(C1)C[C@@H](n1c(NC(=O)c3ccc(C(F)F)s3)nc3cc(CN[C@@H](C)C(C)(C)C)ccc31)C2 [Compound 3]
0.64 nM |  | C=CC(=O)N1CC[C@]2(C1)C[C@H](n1c(NC(=O)c3ccc(-c4cnco4)s3)nc3cc(CN[C@@H](C)C(C)(C)C)ccc31)C2 [Compound 4]
4.28 nM | 2.86 nM | C=CC(=O)N1CC[C@]2(C1)C[C@H](n1c(NC(=O)c3cnco3)nc3cc(CN[C@@H](C)C(C)(C)C)ccc31)C2 [Compound 6]
2.2 nM | 0.6 nM | C=CC(=O)N1CC[C@]2(C1)C[C@H](n1c(NC(=O)c3cnc(C(C)C)s3)nc3cc(CN[C@@H](C)C(C)(C)C)ccc31)C2 [Compound 7]
2.36 nM | 0.67 nM | C=CC(=O)N1CC[C@]2(C1)C[C@H](n1c(NC(=O)c3cnc(C)s3)nc3cc(CN[C@@H](C)C(C)(C)C)ccc31)C2 [Compound 8]
 | 0.2 nM | C=CC(=O)N1CCC[C@]2(C1)C[C@H](n1c(NC(=O)c3ccc(C(F)F)s3)nc3cc(CN[C@@H](C)C(C)(C)C)ccc31)C2 [Compound 9]
 | 0.84 nM | C=CC(=O)N1CCC[C@]2(C1)C[C@@H](n1c(NC(=O)c3ccc(C(F)F)s3)nc3cc(CN[C@@H](C)C(C)(C)C)ccc31)C2 [Compound 10]
1.8 nM |  | C=CC(=O)N1CC[C@]2(C1)C[C@H](n1c(NC(=O)c3cncs3)nc3cc(CN[C@@H](C)C(C)(C)C)ccc31)C2 [Compound 13]
 | 11 nM | C=CC(=O)N1CC[C@]2(C1)C[C@@H](n1c(NC(=O)c3ccc(C(F)F)s3)nc3ccccc31)C2 [Compound 17]
1.34 nM |  | C=CC(=O)N1CC[C@]2(C1)C[C@H](n1c(NC(=O)c3ccc(C#N)cc3)nc3cc(CN[C@@H](C)C(C)(C)C)ccc31)C2 [Compound 19]
0.7 nM |  | C=CC(=O)N1CC[C@]2(C1)C[C@H](n1c(NC(=O)c3ccns3)nc3cc(CN[C@@H](C)C(C)(C)C)ccc31)C2 [Compound 25]
2.59 nM |  | C=CC(=O)N1CC[C@]2(C1)C[C@H](n1c(NC(=O)c3ccc(C(F)F)s3)nc3cc(CN4CCOCC4)ccc31)C2 [Compound 27]
2.11 nM |  | C=CC(=O)N1CC[C@]2(C1)C[C@H](n1c(NC(=O)c3ccc(C(C)(F)F)s3)nc3ccccc31)C2 [Compound 30]
0.95 nM |  | C=CC(=O)N1CC[C@]2(C1)C[C@H](n1c(NC(=O)c3ccc(C(F)F)s3)nc3cc(CNCC(C)(C)CO)ccc31)C2 [Compound 37]
0.53 nM |  | C=CC(=O)N1CC[C@]2(C1)C[C@H](n1c(NC(=O)c3ccc(-c4cnco4)s3)nc3cc(CN[C@H]4CC[C@H](O)CC4)ccc31)C2 [Compound 42]
0.66 nM |  | C=CC(=O)N1CC[C@]2(C1)C[C@H](n1c(NC(=O)c3ccc(-c4cnco4)s3)nc3cc(CNCC(C)(C)CO)ccc31)C2 [Compound 44]
1.09 nM |  | C=CC(=O)N1CC[C@]2(C1)C[C@H](n1c(NC(=O)c3ccc(-c4cnco4)s3)nc3cc(F)ccc31)C2 [Compound 57]
41.9 nM |  | C=CC(=O)N1CC[C@]2(C1)C[C@@H](n1c(NC(=O)c3ccc(-c4cnco4)s3)nc3cc(F)ccc31)C2 [Compound 68]
 | 7.71 nM | C=CC(=O)N1CC[C@]2(C1)C[C@@H](n1c(NC(=O)c3ccc(-c4cnco4)s3)nc3ccc(Cl)cc31)C2 [Compound 69]

IC50 (BTK) | IC50 (TXK) | SMILES
 | 17.9 nM | C=CC(=O)N1CC[C@]2(C1)C[C@@H](n1c(NC(=O)c3ccc(-c4cnco4)s3)nc3cc(Cl)ccc31)C2 [Compound 71]
 | 0.26 nM | C=CC(=O)N1CC[C@]2(C1)C[C@H](n1c(NC(=O)c3ccc(-c4cnco4)s3)nc3ccc(CO)cc31)C2 [Compound 73]
 | 3.15 nM | C=CC(=O)N1CC[C@]2(C1)C[C@H](n1c(NC(=O)c3ccc(C(=O)Nc4cccnc4)s3)nc3ccccc31)C2 [Compound 85]
 | 5.72 nM | C=CC(=O)N1CC[C@]2(C1)C[C@H](n1c(NC(=O)c3ccc(-c4cnco4)s3)nc3c(OC)cccc31)C2 [Compound 87]
 | 17.6 nM | C=CC(=O)N1CC[C@]2(C1)C[C@H](n1c(NC(=O)c3ccc(C(=O)N4CCOCC4)s3)nc3ccccc31)C2 [Compound 91]
 | 64.3 nM | C=CC(=O)N1CC[C@]2(C1)C[C@H](n1c(NC(=O)c3ccc(-c4nc(C)no4)s3)nc3ccccc31)C2 [Compound 92]
 | 9.88 nM | C=CC(=O)N1CC[C@]2(C1)C[C@H](n1c(NC(=O)c3ccc(-c4noc(C)n4)s3)nc3ccccc31)C2 [Compound 93]
0.33 nM |  | C=CC(=O)N1CC[C@]2(C1)C[C@H](n1c(NC(=O)c3ccc(-c4cc[nH]c(=O)c4)s3)nc3ccccc31)C2 [Compound 97]
 | 0.31 nM | C=CC(=O)N1CC[C@]2(C1)C[C@H](n1c(NC(=O)c3ccc(C(=O)OC)s3)nc3ccccc31)C2 [Compound 98]
 | 5.63 nM | C=CC(=O)N1CC[C@]2(C1)C[C@H](n1c(NC(=O)c3ccc(C(=O)N4CCCC4)s3)nc3ccccc31)C2 [Compound 102]
 | 30.1 nM | C=CC(=O)N1CC[C@]2(C1)C[C@H](n1c(NC(=O)c3ccc(NC(=O)C4CCCC4)s3)nc3ccccc31)C2 [Compound 106]
 | 64.1 nM | C=CC(=O)N1CC[C@]2(C1)C[C@H](n1c(NC(=O)c3ccc(NC(=O)c4cccnc4)s3)nc3ccccc31)C2 [Compound 111]
 | 7.31 nM | C=CC(=O)N1CC[C@]2(C1)C[C@H](n1c(NC(=O)c3ccc(-c4ccc(C#N)cc4)s3)nc3ccccc31)C2 [Compound 118]
 | 5.48 nM | C=CC(=O)N1CC[C@]2(C1)C[C@H](n1c(NC(=O)c3ccc(N4CCCC4=O)s3)nc3ccccc31)C2 [Compound 121]
 | 1.22 nM | C=CC(=O)N1CC[C@]2(C1)C[C@H](n1c(NC(=O)c3ccc(-c4cccc(C#N)c4)s3)nc3ccccc31)C2 [Compound 122]
0.63 nM |  | C=CC(=O)N1CC[C@]2(C1)C[C@H](n1c(NC(=O)c3ccc(-c4cncc(N)c4)s3)nc3ccccc31)C2 [Compound 128]
1.06 nM |  | C=CC(=O)N1CC[C@]2(C1)C[C@H](n1c(NC(=O)c3ccc(C(F)(F)CO)s3)nc3ccccc31)C2 [Compound 130]
0.46 nM |  | C=CC(=O)N1CC[C@]2(C1)C[C@H](n1c(NC(=O)c3ccc(-c4ccnc(NC)c4)s3)nc3ccccc31)C2 [Compound 131]
0.41 nM |  | C=CC(=O)N1CC[C@]2(C1)C[C@H](n1c(NC(=O)c3ccc(-c4ccnc(N)n4)s3)nc3ccccc31)C2 [Compound 138]
 | 0.69 nM | C=CC(=O)N1CC[C@]2(C1)C[C@H](n1c(NC(=O)c3ccc(-c4cncnc4)s3)nc3cc(CO)ccc31)C2 [Compound 148]
0.68 nM |  | C=CC(=O)N1CC[C@]2(C1)C[C@H](n1c(NC(=O)c3ccc(-c4ccnc(C)n4)s3)nc3ccccc31)C2 [Compound 149]
